In patent US20070015149A1, “Prlz regulatory elements in the treatment of disease and the discovery of therapeutics” (priority 2002, published 2007):

Columns and labels:
PSA expression = assay: Androgen-activated PSA expression in LNCaP lineage cells; format: cell-based, human; details: LNCaP vs C4-2 and C4-2B4 cells
Protocol: (§1) As an accessory sex organ, development and function of the prostate gland are controlled by androgens, through the mediation of the AR (Gelmann, J. Clin. Oncol. 20:3001-15, 2002). To investigate the possible regulation of PrLZ by androgens, we treated prostate cancer cell lines with an androgen analog, methyltrienolone (R1881, 1 nM), after androgen deprivation. Under cell culture conditions for androgen deprivation (phenol red-free RPMI1640 for 48 hours), there was a marked decline in PrLZ expression in all the prostate cancer cell lines. […] This culture system, or another like it, can be used to identify agents that modulate (by either increasing or decreasing) PrLZ expression.
By comparing the patterns of androgen-activated expression of PrLZ and PSA, it became clear that PrLZ was controlled by a regulatory mechanism that was different from the one controlling the PSA expression. […] Thus, along the transition from an AD to an AI state, there were heterologous changes in AR mediated gene regulation. While LNCAP derivative cell lines lost the mechanism of AR-controlled PSA production, they maintained the capability to regulate some other androgen responsive genes, including PrLZ.

PrLZ expression = assay: Androgen-activated PrLZ expression in prostate cancer cell lines after androgen deprivation; format: cell-based, human
Protocol: as §1
Expression studies: The 502 bp PrLZ gene-specific fragment was subcloned after PCR amplification of the PrLZ cDNA in pBK-CMV, with primers: […], and […]. The amplified DNA was cloned into pGEM-T easy (Promega) and verified by DNA sequencing. The fragment was released from the vector by EcoRi and used in hybridization reactions. Standard protocols were used in Southern and Northern blot hybridizations (Sambrook et al., Molecular cloning, a laboratory manual, Clod Spring Harbor Laboratory Press, 2001), with α-^32P-dCTP used in the labeling step. […]

[1] = tested on: expression of TPD52 members; details: HL-60 and K-562 cells; cited from earlier work

SMILES	PSA expression upon androgen treatment (PSA expression)	PrLZ expression upon androgen treatment (PrLZ expression; R1881 1 nM after androgen deprivation (phenol red-free RPMI1640, 48 hours), prostate cancer cell lines)	PrLZ transcription upon androgen treatment (PrLZ expression; all LNCaP lineage cells (LNCaP, C4-2, C4-2B4))	Expression of TPD52 members upon treatment [1]
C[C@]1(O)CC[C@H]2[C@@H]3CCC4=CC(=O)CCC4=C3C=C[C@@]21C [R1881, methyltrienolone]	androgen-dependent up-regulation only in LCNaP cells	dramatically activated the expression of the PrLZ	marked PrLZ transcription	
CCCCCCCCCCCCCC(=O)O[C@@H]1[C@@H](C)[C@@]2(O)[C@@H](C=C(CO)C[C@]3(O)C(=O)C(C)=C[C@@H]23)[C@H]2C(C)(C)[C@]12OC(C)=O [TPA, 12-O-trtradecanoylphorbol-13-acetate]				inhibited
